According to patent publication US9656972B2, “Compounds for treatment of cystic fibrosis” (THE CALIFORNIA INSTITUTE FOR BIOMEDICAL RESEARCH, priority 2013, dated 2017):

How the values were obtained:
guinea-pigs = test: Tracheal potential difference (TPD) after intra-tracheal dosing in guinea pigs; assay type: in vivo; settings: guinea pig; for TPD (mV): i.t. instillation, mean; for TPD Assessment Time after i.t. Treatment 1 hr / TPD Assessment Time after i.t. Treatment 3 hr / TPD Assessment Time after i.t. Treatment 5 hr / TPD Assessment Time after i.t. Treatment 8 hr / TPD Assessment Time after i.t. Treatment 24 hr / TPD Assessment Time after i.t. Treatment 48 hr: Table 3, mean ± sem
Excerpt: Cystic fibrosis (CF) and chronic obstructive pulmonary disease (COPD) is dysregulated clearance of mucus across the cell layers lining the respiratory tract. A therapeutic strategy to treat these diseases is to inhibit these channels or the regulators of these channels in an effort to correct this mucus clearance defect. Potential difference is used in the clinic as a diagnostic tool for cystic fibrosis sufferers and for clinical trials. Small molecule inhibitors of these targets will enhance mucociliary clearance and thereby improve lung function and reduce the rate of exacerbations in cystic fibrosis (CF) and chronic obstructive pulmonary disease (COPD) patients. The guinea pig, unlike other rodents, has a lung structure which is roughly analogous to the human lung. For this reason, in terms of rodent models of lung function the guinea pig is often the model of choice for respiratory disease models including asthma, COPD and respiratory distress syndrome.
Preparation of Agar Bridges
Agar (3.5%) was dissolved in Hank's buffered salt solution (pH 7.4, 280-305 mosmkg_1H2O) by heating in a water bath at 100° C. A 30-40 cm length of polyethylene tubing, of which one end was bevelled at an angle of 20-60°, was then filled with the agar ensuring no air bubbles were formed or trapped within the tubing. The beveled tip of the tube was then dipped in the liquid agar, creating a small bulge. The exploring and reference electrodes constructed with the Hank's buffered salt solution/agar bridge were linked to a calomel half cell by immersion in 1M KCl.
Guinea pigs received a single dose of either the test article or vehicle instilled directly into the trachea. The animal was placed under short-term anesthesia using an inhaled isoflurane/nitrous oxide (N2O) 1:1 mixture (level 5/optimal for ˜10 sec.; 3.5/2 for 5 min.). At this suitable depth of anesthesia (loss of pedal and blink reflex), a single dose of either the test article, vehicle and/or positive control was instilled directly into the trachea. This was accomplished by very delicately inserted the 3″, 18 guage feeding tube into the trachea to preserve the potential difference of the mucosa. The guinea pig was allowed to recovered immediately; at times with the aid of supplemental O2. […] If there was apparent toxicity, animals were euthanized immediately and all observation was appropriately documented. As the animal was anesthetized during this treatment, no local anesthesia was necessary and there was no need to use a laryngoscope.
30 minutes prior to the 3 hr post dosing surgery each guinea pig received a dose of 0.4 mL of Midazolam-5 mg/mL, intra-peritoneal (i.p.) injection followed 25 minutes later with a 1 mL/kg of 50 mg/kg ketamine/6.5 mg/kg xylazine i.p. injection (previously prepared with 100 mg/mL ketamine and 25 mg/mL xylazine in Sterile Water for Injection USP mixed at 2:1:1 respectively). […] The trachea was exposed and visualized near the sternum using minimal blunt dissection. A lateral incision was made between the cartilaginous rings of the trachea close to the sternum. The beveled (distal) end of an exploring electrode was gently inserted into the lumen of the trachea moving in the direction towards the larynx, ensuring that spontaneous respiration was still possible. The beveled end of the reference electrode was positioned near the trachea in electrical contact with the flesh of the throat. A small volume of HBSS was applied into this region to ensure a good electrical contact. Potential difference was measured using a high impedance voltmeter (IsoMil) (5-0.5 cm increment measurement for verification—but only the initial placement value is recorded). The animal was terminated immediately after this procedure while still under anesthesia with an intra-cardiac dose of 0.5 mL of Euthasol.

[1] = Systemic (plasma) exposure after intratracheal dosing; assay type: in vivo, guinea pig; settings: 1 mg/kg single dose, compared with monomeric GS-9411
Method: A comparison of systemic (plasma exposure) of monomeric compound GS-9411 and dimeric compound 28 after intratracheal dosing was performed (at 1 mg/kg single dose).

[2] = Table 2 controls, dose 300 ug/kg, vehicle −12.4
[3] = Table 1, dose 30 ug/kg, 3 hr after dosing
[4] = Table 1, dose 300 ug/kg, 3 hr after dosing
[5] = Table 1, dose 0.2 ug/kg, 3 hr after dosing

NC(=NCc1ccccc1)NC(=O)c1nc(Cl)c(N)nc1N [Benzamil]
TPD (mV) (guinea-pigs; [2]): −6.2 mV
TPD Assessment Time after i.t. Treatment 1 hr (guinea-pigs; 300 μg/kg): −8.9 (1)
TPD Assessment Time after i.t. Treatment 3 hr (guinea-pigs; 300 μg/kg): −7.2 (1)
TPD Assessment Time after i.t. Treatment 5 hr (guinea-pigs; 300 μg/kg): −8.5 (1)
TPD Assessment Time after i.t. Treatment 8 hr (guinea-pigs; 300 μg/kg): −6.5 (1)
TPD Assessment Time after i.t. Treatment 24 hr (guinea-pigs; 300 μg/kg): −4.8 (1)
TPD Assessment Time after i.t. Treatment 48 hr (guinea-pigs; 300 μg/kg): −10.0 ± 0.07 (2)

CN(C)C(=O)COC(=O)Cc1ccc(OC(=O)c2ccc(NC(=N)N)cc2)cc1 [Camostat]
TPD (mV) (guinea-pigs; [2]): −4.9 mV

N=C(NCCCCc1ccc(OCCOCCNC(=O)C(O)C(O)C(=O)NCCOCCOc2ccc(CCCCNC(=N)NC(=O)c3nc(Cl)c(N)nc3N)cc2)cc1)NC(=O)c1nc(Cl)c(N)nc1N (stereo not drawn) [Compound 16]
TPD (mV) (guinea-pigs; [3]): −6.30 mV

N=C(NCCCCc1ccc(OCCOCCOC(=O)NCCCCNC(=O)OCCOCCOc2ccc(CCCCNC(=N)NC(=O)c3nc(Cl)c(N)nc3N)cc2)cc1)NC(=O)c1nc(Cl)c(N)nc1N [Compound 28]
TPD (mV) (guinea-pigs; [4]): −4.00 mV
TPD Assessment Time after i.t. Treatment 1 hr (guinea-pigs; 30 μg/kg): −6.7 ± 0.65 (3)
TPD Assessment Time after i.t. Treatment 3 hr (guinea-pigs; 30 μg/kg): −6.4 ± 0.60 (3)
TPD Assessment Time after i.t. Treatment 5 hr (guinea-pigs; 30 μg/kg): −5.4 ± 1.03 (3)
TPD Assessment Time after i.t. Treatment 8 hr (guinea-pigs; 30 μg/kg): −5.1 ± 0.54 (3)
TPD Assessment Time after i.t. Treatment 24 hr (guinea-pigs; 30 μg/kg): −5.9 ± 0.18 (3)
TPD Assessment Time after i.t. Treatment 48 hr (guinea-pigs; 30 μg/kg): −9.6 ± 1.43 (3)
lower AUC (total area under the curve) versus GS-9411 [1]: 5 fold
lower Cmax (maximal concentration) versus GS-9411 [1]: 20 ×

N=C(NCCCCc1ccc(OCCOCCNC(=O)NCCCCNC(=O)NCCOCCOc2ccc(CCCCNC(=N)NC(=O)c3nc(Cl)c(N)nc3N)cc2)cc1)NC(=O)c1nc(Cl)c(N)nc1N [Compound 37]
TPD (mV) (guinea-pigs; [3]): −7.50 mV
TPD (mV) (guinea-pigs; [4]): −5.50 mV

COC(=O)C(CCCC(NC(=O)OCCOCCOc1ccc(CCCCNC(=N)NC(=O)c2nc(Cl)c(N)nc2N)cc1)C(=O)OC)NC(=O)OCCOCCOc1ccc(CCCCNC(=N)NC(=O)c2nc(Cl)c(N)nc2N)cc1 (stereo not drawn) [Compound 46]
TPD (mV) (guinea-pigs; [3]): −7.30 mV

N=C(N)Nc1ccc(C(=O)Oc2ccc3cc(C(=N)NCCOCCOCCNC(=N)c4ccc5cc(OC(=O)c6ccc(NC(=N)N)cc6)ccc5c4)ccc3c2)cc1 [Compound 50]
TPD (mV) (guinea-pigs; [4]): −6.20 mV

N=C(N)Nc1ccc(C(=O)Oc2ccc(CC(=O)OCC(=O)NCCOCCOCCNC(=O)COC(=O)Cc3ccc(OC(=O)c4ccc(NC(=N)N)cc4)cc3)cc2)cc1 [Compound 53]
TPD (mV) (guinea-pigs; [3]): −9.3 mV

N=C(NCCCCc1ccc(OCCOCCOCCOCCOCCO)cc1)NC(=O)c1nc(Cl)c(N)nc1N [Compound 66]
TPD (mV) (guinea-pigs; [3]): −7.80 mV

N=C(NCCCCc1ccc(OCCOCCNC(=O)CCC(=O)NCCOCCOc2ccc(CCCCNC(=N)NC(=O)c3nc(Cl)c(N)nc3N)cc2)cc1)NC(=O)c1nc(Cl)c(N)nc1N [Compound 67]
TPD (mV) (guinea-pigs; [5]): −7.0 mV

N=C(NCCCCc1ccc(OCCOCCOCCNC(=O)CCC(=O)NCCOCCOCCOc2ccc(CCCCNC(=N)NC(=O)c3nc(Cl)c(N)nc3N)cc2)cc1)NC(=O)c1nc(Cl)c(N)nc1N [Compound 68]
TPD (mV) (guinea-pigs; [5]): −6.9 mV

N=C(NCCCCc1ccc(OCCOCCOCCNC(=O)C(=O)NCCOCCOCCOc2ccc(CCCCNC(=N)NC(=O)c3nc(Cl)c(N)nc3N)cc2)cc1)NC(=O)c1nc(Cl)c(N)nc1N [Compound 69]
TPD (mV) (guinea-pigs; [3]): −6.3 mV
